Activity calls are given as the source filed them.
Key:
Fatty acid synthase [1] = biological target: T1, Fatty acid synthase (Homo sapiens, UniProt P49327); experiment: FAS thioesterase domain inhibitors, dose response, biochemical, endpoint fluorescence intensity, uHTS hits (AID 624327); assay type: functional;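 also: fluorescence from hydrolysis of an O-methyl fluorescein acyl ester substrate by the enzyme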
Fatty acid synthase [2] = biological target: T1, Fatty acid synthase; experiment: FAS thioesterase domain inhibitors, dose response, biochemical, kinetic fluorescence intensity (AID 624326); assay type: functional;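 also: rate of fluorescence rise from hydrolysis of a fluorogenic O-methyl fluorescein ester substrate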
[3] = NIH-3T3 fibroblast cytotoxicity, dose response, cytotoxicity control, cell-based, fluorescence, Alamar Blue, secondary assay (AID 2327); assay type: functional;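 also: NIH-3T3 mouse fibroblasts cultured with fluconazole at 8 µg/mL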
cells [4] = assay type: functional, cell-based
[5] = C. albicans growth with fluconazole, confirmation, fluorescence, retest (AID 2467); assay type: functional, cell-based
cells [6] = assay type: functional, cell-based; remark: listed apart in the source
[7] = biological target: Heat shock protein HSP 90-alpha (Homo sapiens, UniProt P07900); assay type: functional, organism-based
[8] = Luminescence Cell-Based Dose Confirmation HTS to Identify Activators of 5'UTR Stem-Loop Driven Alpha-Synuclein mRNA Translation in H4 Neuroglioblastoma Cells. [Related pubchem assays: 1829 (Project Summary), 1814 (Primary HTS)]; assay type: functional
[9] = Luminescence Cell-Based Dose Response HTS to Identify Activators of Luciferase Translation or Activity in H4 […] Cells. [Related pubchem assays: 1829 (Project Summary), 1814 (Primary HTS)]; assay type: functional
H4 = experiment: Luminescence Cell-Based Dose Response HTS to Identify Activators of 5'UTR Stem-Loop Driven Prion Protein mRNA Translation in H4 Neuroglioblastoma Cells. [Related pubchem assays: 1829 (Project Summary), 1814 (Primary HTS)]; assay type: functional; conditions: Homo sapiens
[10] = biological target: T2, High affinity choline transporter 1 (Homo sapiens, UniProt Q9GZV3); experiment: CHT inhibitors, dose response, cell-based, 5-point CRC, membrane potential dye (AID 504840); assay type: functional
T2 sequence (Q9GZV3 whole entry): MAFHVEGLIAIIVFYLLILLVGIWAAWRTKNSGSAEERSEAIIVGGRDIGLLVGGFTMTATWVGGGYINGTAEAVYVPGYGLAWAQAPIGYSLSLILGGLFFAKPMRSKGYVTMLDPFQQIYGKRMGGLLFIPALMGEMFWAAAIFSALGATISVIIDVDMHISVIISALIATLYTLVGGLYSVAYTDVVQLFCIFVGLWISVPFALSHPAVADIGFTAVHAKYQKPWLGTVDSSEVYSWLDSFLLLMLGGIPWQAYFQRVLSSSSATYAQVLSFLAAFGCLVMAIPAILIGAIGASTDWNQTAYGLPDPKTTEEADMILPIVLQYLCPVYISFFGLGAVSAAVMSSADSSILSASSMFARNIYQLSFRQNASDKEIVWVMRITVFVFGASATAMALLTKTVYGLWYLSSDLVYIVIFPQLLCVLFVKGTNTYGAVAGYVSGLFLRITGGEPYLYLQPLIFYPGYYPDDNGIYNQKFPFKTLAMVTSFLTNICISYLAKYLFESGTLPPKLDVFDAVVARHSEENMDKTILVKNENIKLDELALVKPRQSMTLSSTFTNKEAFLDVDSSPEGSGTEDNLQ

[11] = biological target: T3, Long-chain-fatty-acid--AMP ligase FadD28 (Mycobacterium tuberculosis, UniProt P9WQ59); experiment: Fluorescence polarization aasay to screen for inhibitors that compete for the binding of FadD28 to a bisubstrate Measured in Biochemical System Using Plate Reader - 2147-01_Inhibitor_Dose_CherryPick_Activity.; assay type: functional, Mycobacterium tuberculosis H37Rv
T3 sequence (P9WQ59 whole entry): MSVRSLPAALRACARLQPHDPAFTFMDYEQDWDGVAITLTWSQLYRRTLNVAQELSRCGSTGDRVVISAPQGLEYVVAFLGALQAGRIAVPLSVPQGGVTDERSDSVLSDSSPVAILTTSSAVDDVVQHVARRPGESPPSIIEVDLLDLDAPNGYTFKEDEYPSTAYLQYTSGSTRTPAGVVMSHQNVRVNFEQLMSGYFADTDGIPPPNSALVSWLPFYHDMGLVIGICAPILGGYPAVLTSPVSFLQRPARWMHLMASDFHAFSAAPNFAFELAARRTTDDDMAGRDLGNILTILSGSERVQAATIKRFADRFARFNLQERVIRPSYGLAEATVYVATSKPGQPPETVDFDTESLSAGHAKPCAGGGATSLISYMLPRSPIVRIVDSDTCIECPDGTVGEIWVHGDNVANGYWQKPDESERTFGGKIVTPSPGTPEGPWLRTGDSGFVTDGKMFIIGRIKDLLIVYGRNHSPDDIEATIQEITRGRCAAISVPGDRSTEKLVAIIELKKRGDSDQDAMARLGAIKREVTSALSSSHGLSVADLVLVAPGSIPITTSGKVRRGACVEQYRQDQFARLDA

[12] = growth suppression of PTEN-null colon cells, dose response, cell-based, HCT116 PTEN knockout (AID 1047); assay type: functional;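 also: HCT116 colon tumor cells with PTEN knocked out; cells exposed to compound for 60 hours before readout; potency for loss of cell viability measured by luminescence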
[13] = growth suppression of beta-catenin-knockout colon cells, dose response, cell-based, HCT116, human colon tumor (AID 1045); assay type: functional;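 also: HCT116 colon tumor cells with beta catenin knocked out; cells exposed to compound for 60 hours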
[14] = biological target: T4, Ubiquitin-conjugating enzyme E2 N (Homo sapiens, UniProt P61088); assay type: functional;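 also: Dose-response confirmation in a TR-FRET assay detecting UBC13-driven polyubiquitin chain formation, inhibition measured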
T4 sequence (P61088 whole entry): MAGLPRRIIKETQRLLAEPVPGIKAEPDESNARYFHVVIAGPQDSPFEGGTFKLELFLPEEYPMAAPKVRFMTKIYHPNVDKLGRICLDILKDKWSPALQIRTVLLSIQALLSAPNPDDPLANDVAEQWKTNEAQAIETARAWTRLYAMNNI

[15] = biological target: T5, Heat shock factor protein 1 (Mus musculus, UniProt P38532); experiment: inhibition of MG132-induced HSE-luciferase signal, confirmation, cell-based, NIH3T3, luminescence, dose retest (AID 2382); assay type: functional;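 also: NIH3T3 fibroblasts with HSF1-driven luciferase reporter stressed by proteasome inhibitor MG132; luminescence from HSF1-driven luciferase expression after 8 hours of MG132 stress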
T5 sequence (P38532 whole entry): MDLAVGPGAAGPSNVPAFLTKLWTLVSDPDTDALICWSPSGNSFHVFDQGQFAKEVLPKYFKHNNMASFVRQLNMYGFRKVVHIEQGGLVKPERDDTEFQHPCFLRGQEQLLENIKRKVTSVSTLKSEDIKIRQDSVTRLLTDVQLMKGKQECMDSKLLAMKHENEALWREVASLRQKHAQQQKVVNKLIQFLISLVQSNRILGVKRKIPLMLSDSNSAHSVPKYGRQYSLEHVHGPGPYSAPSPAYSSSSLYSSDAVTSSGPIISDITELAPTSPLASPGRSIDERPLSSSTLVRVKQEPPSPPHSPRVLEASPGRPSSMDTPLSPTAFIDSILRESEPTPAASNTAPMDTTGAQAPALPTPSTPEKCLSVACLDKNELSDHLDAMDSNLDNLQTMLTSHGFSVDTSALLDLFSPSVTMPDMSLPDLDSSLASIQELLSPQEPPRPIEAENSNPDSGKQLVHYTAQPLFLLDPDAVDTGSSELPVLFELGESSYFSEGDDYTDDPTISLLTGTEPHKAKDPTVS

T1 sequence (P49327 whole entry, the tested form may be a part): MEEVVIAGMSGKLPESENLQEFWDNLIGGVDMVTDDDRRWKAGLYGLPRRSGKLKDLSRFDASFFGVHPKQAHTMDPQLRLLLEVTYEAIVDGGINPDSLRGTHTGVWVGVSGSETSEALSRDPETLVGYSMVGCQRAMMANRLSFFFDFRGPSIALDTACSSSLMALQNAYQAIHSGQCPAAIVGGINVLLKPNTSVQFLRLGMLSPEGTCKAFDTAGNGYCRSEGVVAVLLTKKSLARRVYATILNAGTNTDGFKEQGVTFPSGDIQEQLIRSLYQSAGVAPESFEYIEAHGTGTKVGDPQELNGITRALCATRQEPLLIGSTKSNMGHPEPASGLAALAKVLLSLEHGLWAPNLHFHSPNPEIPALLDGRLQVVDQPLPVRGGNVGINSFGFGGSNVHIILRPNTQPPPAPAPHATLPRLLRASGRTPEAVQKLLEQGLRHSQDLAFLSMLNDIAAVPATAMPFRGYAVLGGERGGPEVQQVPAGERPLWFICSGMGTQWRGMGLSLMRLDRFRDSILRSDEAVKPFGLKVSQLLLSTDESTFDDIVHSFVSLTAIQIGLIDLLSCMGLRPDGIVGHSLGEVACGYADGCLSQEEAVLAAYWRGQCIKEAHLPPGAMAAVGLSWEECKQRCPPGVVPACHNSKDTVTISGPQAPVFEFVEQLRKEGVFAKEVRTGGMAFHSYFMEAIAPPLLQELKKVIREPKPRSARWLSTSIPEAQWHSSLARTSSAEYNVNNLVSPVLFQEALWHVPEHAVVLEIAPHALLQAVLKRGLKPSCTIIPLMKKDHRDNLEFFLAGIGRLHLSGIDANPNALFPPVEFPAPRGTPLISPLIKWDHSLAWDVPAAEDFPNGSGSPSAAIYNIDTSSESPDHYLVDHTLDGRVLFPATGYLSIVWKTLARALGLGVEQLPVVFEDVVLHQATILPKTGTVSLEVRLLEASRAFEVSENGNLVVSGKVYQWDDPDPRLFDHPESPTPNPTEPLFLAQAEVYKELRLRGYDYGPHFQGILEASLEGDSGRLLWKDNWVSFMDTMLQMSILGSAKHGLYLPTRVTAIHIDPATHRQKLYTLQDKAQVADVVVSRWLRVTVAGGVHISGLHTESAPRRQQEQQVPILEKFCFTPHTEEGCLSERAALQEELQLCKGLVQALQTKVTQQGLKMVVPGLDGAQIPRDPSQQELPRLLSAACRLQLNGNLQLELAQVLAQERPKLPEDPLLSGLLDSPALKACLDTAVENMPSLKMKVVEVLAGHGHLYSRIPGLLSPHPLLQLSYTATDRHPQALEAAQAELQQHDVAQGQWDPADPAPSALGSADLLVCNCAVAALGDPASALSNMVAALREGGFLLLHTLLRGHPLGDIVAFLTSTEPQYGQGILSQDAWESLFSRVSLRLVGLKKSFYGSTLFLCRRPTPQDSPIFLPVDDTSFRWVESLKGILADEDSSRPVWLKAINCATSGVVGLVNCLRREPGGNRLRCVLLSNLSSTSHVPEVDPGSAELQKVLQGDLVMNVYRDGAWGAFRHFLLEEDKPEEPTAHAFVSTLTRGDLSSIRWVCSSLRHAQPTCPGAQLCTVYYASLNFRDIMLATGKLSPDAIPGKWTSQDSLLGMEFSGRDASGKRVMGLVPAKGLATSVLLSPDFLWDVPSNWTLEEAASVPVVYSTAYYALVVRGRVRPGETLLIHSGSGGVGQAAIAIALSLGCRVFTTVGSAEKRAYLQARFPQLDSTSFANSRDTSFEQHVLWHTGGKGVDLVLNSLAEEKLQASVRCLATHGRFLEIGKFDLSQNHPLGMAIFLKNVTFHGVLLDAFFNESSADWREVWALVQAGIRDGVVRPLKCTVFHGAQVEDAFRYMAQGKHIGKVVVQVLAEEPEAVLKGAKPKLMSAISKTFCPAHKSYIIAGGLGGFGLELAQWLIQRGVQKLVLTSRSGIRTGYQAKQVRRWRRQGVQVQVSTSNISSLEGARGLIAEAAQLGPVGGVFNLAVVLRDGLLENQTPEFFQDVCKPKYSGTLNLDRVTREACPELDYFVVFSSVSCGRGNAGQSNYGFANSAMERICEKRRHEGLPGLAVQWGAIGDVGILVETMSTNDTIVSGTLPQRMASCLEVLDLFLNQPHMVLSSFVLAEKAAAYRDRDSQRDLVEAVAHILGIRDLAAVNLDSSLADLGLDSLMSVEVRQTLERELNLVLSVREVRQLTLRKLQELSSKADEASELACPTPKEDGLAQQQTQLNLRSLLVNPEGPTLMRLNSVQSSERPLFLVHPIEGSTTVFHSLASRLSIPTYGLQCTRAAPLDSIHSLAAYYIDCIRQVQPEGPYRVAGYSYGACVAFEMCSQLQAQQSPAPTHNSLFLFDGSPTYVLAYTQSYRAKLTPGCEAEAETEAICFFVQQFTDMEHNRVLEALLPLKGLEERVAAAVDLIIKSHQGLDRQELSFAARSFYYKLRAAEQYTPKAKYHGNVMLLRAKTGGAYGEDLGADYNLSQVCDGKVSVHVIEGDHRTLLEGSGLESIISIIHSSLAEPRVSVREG

For `Cc1nn(Cc2ccc([N+](=O)[O-])cc2)c(=O)n1-c1cccc(Cl)c1`, the IC50 (Fatty acid synthase [1]) was 5.54 µM (active) and the IC50 (Fatty acid synthase [2]) was 8.36 µM (active).

For `Oc1ccc(CN2CCC(Cc3ccccc3)CC2)c2cccnc12`, the EC50 [3] was 22.3 µM (active), the EC50 (cells [4]) was 6.9 µM (active) and the EC50 [5] was 1.99 µM (active). The EC50 (cells [6]) was > 350 µM (not active).

With `CC1=C(C(=O)OCc2ccccc2)C(/C=C/c2ccccc2)NC(S)=N1` (stereo not drawn) the AC50 [7] was 4.08 µM (active).

For `Cc1ccc2[nH]c(N3CCN(C)CC3)nc2c1`, the EC50 [8] was 3.62 µM (active), the EC50 [9] was 18.7 µM (active) and the EC50 (cells [4]) was > 350 µM (not active). For the same compound, the EC50 (H4) was 20 µM (active) and the EC50 (cells [6]) was > 350 µM (not active).

For `CCS(=O)(=O)C1=NSC2=NC(=O)/C(=C\c3ccc(OS(=O)(=O)c4ccccc4)c(OC)c3)C(=N)N21`, the IC50 [10] was 13.5 µM (active).

In the case of `O=C(O)c1ccc(-c2nc(-c3ccccc3)c(-c3ccccc3)[nH]2)cc1`, the AC50 [11] is reported as 92.3 µM (active).

For `CC(=O)c1cc(C#N)c(SCCC(C)C)nc1C`, the IC50 (Fatty acid synthase [1]) was 9.77 µM (active) and the IC50 (Fatty acid synthase [2]) was 9.54 µM (active).

With `Cc1cc(C2N=C(N)Nc3nc4ccccc4n32)c(C)n1-c1ccccc1Cl` (stereo not drawn) the EC50 [12] was 30.1 µM (active), the EC50 [13] was 23.4 µM (active) and the IC50 [14] was > 20 µM (inactive).

In the case of `Cn1c(SCC(=O)Nc2ncc(C(F)(F)F)cc2Cl)nnc1-c1ccc(Cl)cc1`, the EC50 [15] is reported as > 195 µM (not active), the IC50 (Fatty acid synthase [1]) is reported as 0.551 µM (active) and the IC50 (Fatty acid synthase [2]) is reported as 0.572 µM (active).

With `COc1ccc([N+](=O)[O-])cc1NC(=O)N(C)Cc1ccco1` the IC50 (Fatty acid synthase [1]) was 17.7 µM (active) and the IC50 (Fatty acid synthase [2]) was 21.1 µM (inactive).

In the case of `COc1ccc(C2=CC3=C(Br)C(=O)C(C)(O)C(=O)C3=CO2)cc1` (stereo not drawn), the AC50 [7] is reported as 2.62 µM (active).

With `Cc1cccc(NC(=O)COC(=O)c2cccc(S(=O)(=O)N3CCCCCC3)c2)c1` the AC50 [11] was 7.43 µM (active).

With `CCN(CCO)C1CC(=O)N(c2ccccc2C)C1=O` (stereo not drawn) the AC50 [7] was 2.14 µM (active).

With `COC(=O)CSc1nnc(-c2ccc(NS(=O)(=O)c3ccccc3)cc2)o1` the IC50 [10] was 12 µM (active).
